Assay results reported in patent US10238680B2, “D-amino acid phosphoramidate pronucleotides of halogeno pyrimidine compounds for liver disease” (priority 2013, dated 2019).

Experiments:
HCV polymerase S282T = target: T1, HCV polymerase S282T (Hepatitis C virus genotype 1b, UniProt Q9WMX2, S2701T); assay: HCV polymerase enzyme assay, S282T; assay type: biochemical
T1 construct: approximately 65 kDa HCV genotype 1b NS5B protein were used to generate recombinant HCV polymerases (with a deletion of the 21 carboxy terminal amino acids); made in house

[1] = target: T2, wild-type HCV genotype 1b NS5B polymerase (Hepatitis C virus genotype 1b, UniProt Q9WMX2); assay: HCV polymerase enzyme assay, wild-type; assay type: biochemical
T2 construct: approximately 65 kDa HCV genotype 1b NS5B protein were used to generate recombinant HCV polymerases (with a deletion of the 21 carboxy terminal amino acids); made in house
From the text: Test compounds in the form of nucleoside triphosphates were examined for inhibitory activity against purified HCV polymerase in a standard assay. Bacterial expression constructs encoding the approximately 65 kDa HCV genotype 1b NS5B protein were used to generate recombinant HCV polymerases (with a deletion of the 21 carboxy terminal amino acids). The wild-type genotype 1b protein was expressed and purified for use in the enzymatic activity assay.
The enzymatic activity assay measured the inhibitory effect of increasing concentrations of test compound on the incorporation of α-[^33P]-labeled nucleotide into trichloroacetic acid-precipitable material. Recombinant polymerase and synthetic RNA template were combined in reaction buffer containing three unlabeled ribonucleoside triphosphates, one α-[^33P]-labeled ribonucleosidee triphosphate and eight concentrations of test compound in three-fold dilutions. Reactions were incubated for two hours at 30° C.
Reactions were terminated by the addition of ice-cold trichloroacetic acid and sodium pyrophosphate to promote precipitation of newly-synthesized ribonucleic acid. Precipitable material from the reactions was collected by filtration onto 96-well filter plates, washed extensively with water, and quantified by liquid scintillation.
The inhibitory activity of test compounds was determined by fitting results to dose-response curves using XLfit software.

| SMILES | IC50 (HCV polymerase S282T) [nM] | IC50 [1] [nM] |
| --- | --- | --- |
| C[C@@]1(F)[C@H](O)[C@@H](COP(=O)(O)OP(=O)(O)OP(=O)(O)O)O[C@H]1n1cc(F)c(=O)[nH]c1=O [Compound 304] | 1000 to 10000 | < 250 |
| C[C@@]1(O)[C@H](O)[C@@H](COP(=O)(O)OP(=O)(O)OP(=O)(O)O)O[C@H]1n1cc(F)c(N)nc1=O [Compound 302] | – | < 250 |
| C[C@@]1(Cl)[C@H](O)[C@@H](COP(=O)(O)OP(=O)(O)OP(=O)(O)O)O[C@H]1n1cc(F)c(=O)[nH]c1=O [Compound 301] | – | 250 to 1000 |
| C[C@@]1(Cl)[C@H](O)[C@@H](COP(=O)(O)OP(=O)(O)OP(=O)(O)O)O[C@H]1n1cc(F)c(N)nc1=O [Compound 303] | – | 250 to 1000 |
